The text below walks through data of patent publication US20080207885A1, “Method for site-specific labeling of RNA using a deoxyribozyme” (priority 2007, published 2008).

Several values for one entry are separate records, joined by “and”; a condition that tells them apart may be missing. Identical values can stand only once. {App} = adenylated (5'-5' adenylyl pyrophosphate) terminus

Data set [1] deals with 10DM24 deoxyribozyme. Nature of the data set: Ligation with full-length R oligonucleotide as substrate, varied 5′-terminal nucleotide. Type of data set: biochemical. To be noted: for kobs: full-length R substrate, deoxyribozyme nucleotide changed to maintain Watson-Crick complementarity. As for the experimental part: (§1) General Description of Kinetic Assays. All kinetic assays with the 10DM24 deoxyribozyme and its variants were performed according to established methods (Flynn-Charlebois, et al. (2003) supra; Wang and Silverman (2003) supra). The 5′-^32P-labeled RNA substrate (L for “left-hand substrate”) that provides the branch-site adenosine was the limiting reagent relative to 10DM24 (E) and the truncated cofactor RNA (RΔ; R originally derived from “right-hand substrate”). The ratio L:E:RΔ was 1:10:30, with 0.25 μM 10DM24. The cofactor RΔ was 5′-phosphorylated unless otherwise stated. The RNA substrate L, deoxyribozyme 10DM24 and cofactor RΔ were annealed in 5 mM HEPES, pH 7.5, 15 mM NaCl, 0.1 mM EDTA by heating at 95° C. for 3 minutes and cooling on ice for 5 minutes. The ligation reactions were performed with the appropriate concentration of NTP substrate (0.05-50 mM) at a final buffer concentration of 100 mM CHES, pH 9.0, 150 mM NaCl, 2 mM KCl, and 40-400 mM MgCl2 at 37° C. for up to 5 hours. The combination of 1 mM NTP and 40 mM MgCl2 was defined as “standard incubation conditions”; 10 mM NTP and 150 mM MgCl2 was defined as “enhanced incubation conditions”. At appropriate timepoints, aliquots were removed from the sample, quenched into stop solution (80% formamide, 1× TB [89 mM each Tris and boric acid, pH 8.3], and 50 mM EDTA containing 0.025% bromophenol blue and xylene cyanol) and stored at −20° C. prior to analysis. Samples were separated by 20% denaturing PAGE at 30 W for 115 minutes and imaged with a PHOSPHORIMAGER. The resulting data were fit to the equation yield=Y·(1−e^−kt), where k=kobs and Y=final yield.
The generality of the ligation reaction using other NTP substrates in place of GTP was also determined. The analogous reaction with the full-length R oligonucleotide as substrate proceeded well when a 5′-terminal G was present (kobs 0.51 min^−1 for 5′-AppG), with only three-fold reduced rate with 5′-AppA (kobs 0.18 min^−1). The RNA substrate with 5′-AppC reacted 20-fold more slowly than 5′-AppG, but still gave high yield (kobs 0.024 min^−1; 89% in 3 hours), whereas the yield with 5′-AppU was very poor (kobs 0.002 min^−1; 9% in 3 hours). It is noted that in all cases, the corresponding deoxyribozyme nucleotide was changed to maintain Watson-Crick complementarity.

Data set [2] relates to 10DM24 deoxyribozyme. The data set is described as follows: 10DM24-catalyzed ligation of small-molecule NTP substrate to branch-site adenosine of RNA substrate L with cofactor RΔ. Type of data set: biochemical. To be noted: for krel = kobs,NTP*/kobs,NTP: relative to GTP. As for the experimental part:
as §1
Use of Free NTPs as Substrates. It was determined whether 10DM24 could catalyze ligation with free GTP as a substrate (see FIG. 1B), thereby transferring guanosine 5′-monophosphate (GMP) to the branch-site adenosine 2′-hydroxyl group. When RΔ, an oligoribonucleotide cofactor that corresponds to all of the remaining nucleotides of R, was added to 10DM24 along with GTP, ligation was efficient (FIG. 8; 94% yield in 5 hours and kobs 0.034 min^−1 under the standard incubation conditions of 1 mM GTP and 40 mM MgCl2 at pH 9.0, 37° C.). The RNA product with the single added guanosine at the branch-site adenosine was PAGE-purified and the identity confirmed by partial alkaline hydrolysis (50 mM NaHCO3 at 95° C. for 5 minutes) and MALDI mass spectrometry (m/z calcd. 5433, found 5437±5).

Data set [3] concerns 10DM24-C44T mutant deoxyribozyme. The data set is described as follows: Ligation of NTP substrate with 10DM24 variant in which the terminal P4 nucleotide is changed C→T, cofactor RΔ. The format is biochemical. To be noted: for krel = kobs,NTP*/kobs,NTP: relative to ATP. As for the experimental part: as §1
Focus was then placed on the purine NTPs (GTP, ATP) and their derivatives. When 1 mM ATP was provided as a small molecule substrate in place of GTP using the original 10DM24 sequence and RΔ, no reaction was observed (<1% in 5 hours). […] Furthermore, the kobs increased sixteen-fold to 0.013 min^−1 under enhanced conditions with 10 mM ATP (82% yield in 3 hours).

The subject of another data set is 10DM24 variant. The data set is described as follows: Ligation of ATP as substrate and cofactor with RΔΔ, P4 nucleotides 43 and 44 changed CC→TT. To be noted: 20 mM ATP, 150 mM MgCl2, RΔΔ. Type of data set: biochemical.
The test system of data set [4] is 10DM24 deoxyribozyme. Nature of the data set: Multiple-turnover ligation of GTP. Type of data set: biochemical. From the text: In contrast, upon 10DM24-catalyzed reaction of the oligoribonucleotide 2′-hydroxyl group with the NTP substrate, the binding affinity of the RNA for the deoxyribozyme was not expected to increase substantially. Thus, the capability of the engineered 10DM24 deoxyribozyme to catalyze the multiple-turnover ligation of GTP was examined. The 10DM24 deoxyribozyme was the limiting reagent, with the RNA substrate that provides the branch-site adenosine (L) in 10-fold excess over the deoxyribozyme (L:E:RΔ=10:1:3). The reaction was performed under the standard incubation conditions described herein using 1 mM GTP and 40 mM MgCl2 at 37° C. After 5 hours, the product yield was 50%, corresponding to 5 turnovers. Accordingly, with GTP as substrate, multiple-turnover behavior was shown using an RNA ligase deoxyribozyme.

The test system of data set [5] is 10DM24 deoxyribozyme. Nature of the data set: Ligation of GTP or pppGpG in presence of shorter cofactor RΔΔ. The format is biochemical. As for the experimental part:
It was subsequently shown that a binding site for an NTP cofactor can be located adjacent to the substrate binding site. This was achieved by removing an additional nucleotide from the RΔ cofactor, forming the shorter RΔΔ cofactor which required two added nucleotides to reconstitute the complete P4 region (FIG. 10). The 10DM24-catalyzed ligation reaction of GTP in the presence of the two-nucleotide short cofactor RΔΔ was performed with the 5′-^32P-labeled RNA substrate (L) that provides the branch-site adenosine as the limiting reagent. For kinetic assays, the ratio of L:E:RΔΔ was 1:10:30 with 0.25 μM deoxyribozyme (E). For isolation of the reaction products, the ratio L:E:RΔΔ was 1:2:3 with 1.5 μM deoxyribozyme. The reaction was performed under the enhanced incubation conditions with 20 mM GTP and 150 mM MgCl2 in 100 mM CHES, pH 9.0, 150 mM NaCl, and 2 mM KCl at 37° C. for up to 7 hours. […] Both products were isolated and shown by partial alkaline hydrolysis to be branched with the connectivities A-G and A-GG (where A is the branch-site adenosine).
It was contemplated that the new A-GG product was formed by initial templated but otherwise uncatalyzed synthesis of a GG dinucleotide (i.e., pppGpG) from two GTP molecules, followed by 10DM24-catalyzed branch formation using this dinucleotide. […] The reaction was performed under the enhanced incubation conditions of 20 mM GTP and 150 mM MgCl2. […] The pppGpG dinucleotide was synthesized independently using T7 RNA polymerase (Huang, et al. (1998) supra) and led solely to the A-GG product. Although the pppGpG substrate had Kd,app of >1 mM with RΔΔ, similar to Kd,app for GTP with RΔ, the ligation reaction with pppGpG and RΔΔ had kobs six-fold higher than for the analogous reaction with GTP and RΔ (Table 8).
(§2) Similar experiments were performed using the mutant 10DM24 deoxyribozyme that has CTTT rather than CCTT in the P4 region (FIG. 11). For the DNA-catalyzed ligation of pppGpG, the 5′-^32P-labeled RNA with the branch-site adenosine (L) was incubated with the 10DM24 deoxyribozyme (E) and the cofactor RΔΔ in the ratio of L:E:RΔΔ=1:10:30 in the presence of 1 mM pppGpG and 40 mM MgCl2 in 100 mM CHES pH 9.0, 150 mM NaCl, and 2 mM KCl at 37° C. The analysis of the ligation reaction was performed as described herein. […] This is consistent with the model that pppGpG and the first two nucleotides of RΔΔ together reconstitute the P4 helix. When the ligation reaction with pppGpG was tested in the presence of RΔ instead of RΔΔ, the ligation product A-GG was formed, but with a 10-fold decrease in kobs (squares in FIG. 11). Because RΔ provides an extraneous G nucleotide when combined with pppGpG (see legend of FIG. 11), some disruption in activity is perhaps anticipated. […] This is consistent with the observation that GTP was also not a substrate for the 10DM24-C44T mutant deoxyribozyme.
The ligation reaction of pppGpG was also performed using a variety of pppGpG concentrations with the parent 10DM24 deoxyribozyme in the presence of RΔΔ and 40 mM MgCl2. In FIG. 12, the kobs values are plotted versus [pppGpG] and fit to kobs=kmax·[pppGpG]/(Kd,app+[pppGpG]). The Kd,app for pppGpG was >1 mM.

In the next data set the target is glmS riboswitch. To be noted: read-out: Kd,app; cited from earlier work.
For data set [6], the system named is mutant 10DM24 deoxyribozyme that has CTTT rather than CCTT in the P4 region. Nature of the data set: Ligation of pppGpG, second deoxyribozyme nucleotide in P4 mutated C→T. The format is biochemical. To be noted: 1 mM pppGpG, RΔΔ, 40 mM MgCl2. As for the experimental part:
as §2

For data set [7], the system named is 10DM24-C44T mutant deoxyribozyme. Nature of the data set: Ligation of pppGpG, first DNA nucleotide in P4 (nucleotide 44) changed C→T. To be noted: 1 mM pppGpG, RΔΔ, 40 mM MgCl2. Type of data set: biochemical. As for the experimental part: as §2
[8] abbreviates: enhanced incubation conditions, 3 h.

For “5′-AppA: full-length R oligonucleotide substrate with 5′-terminal A (AGAAGAGAUGGCGACGG; RNA, 5' {App}, backbone not given here)”, the kobs in the data set on 10DM24 deoxyribozyme [1] was 0.18 min⁻¹.

Regarding “5′-AppC: full-length R oligonucleotide substrate with 5′-terminal C (CGAAGAGAUGGCGACGG; RNA, 5' {App}, backbone not given here)”, in the data set on 10DM24 deoxyribozyme [1], the “reacted more slowly than 5′-AppG” value was determined as 20 fold, the “ligation yield in 3 hours” value was found to be 89% and the kobs stood at 0.024 min⁻¹.

Take “5′-AppU: full-length R oligonucleotide substrate with 5′-terminal U (UGAAGAGAUGGCGACGG; RNA, 5' {App}, backbone not given here)”: in the data set on 10DM24 deoxyribozyme [1], the “ligation yield in 3 hours” value worked out at 9% and the kobs amounted to 0.002 min⁻¹.

With `Nc1ncnc2c1ncn2[C@@H]1O[C@H](COP(=O)(O)OP(=O)(O)OP(=O)(O)O)[C@@H](O)[C@H]1O` [ATP], the entries for the “ligation yield %, 5 h” value (in the data set with 10DM24 deoxyribozyme [2] (standard incubation conditions); in [3] (standard incubation conditions)) were below 1% and 33%, respectively. Besides, the “kobs,enh/kobs,std” value in data set [3] (ATP series) is listed as 16. Further, the “ligation yield %, 3 h” value in data set [3] (setting [8]) came to 82%. In addition, the kobs in [3] (enhanced incubation conditions: 10 mM NTP, 150 mM MgCl2, pH 9.0, 37° C.) worked out at 0.013 min⁻¹; in data set [3] (standard incubation conditions: 1 mM NTP, 40 mM MgCl2, pH 9.0, 37° C., RΔ, ATP series), 0.0008 min⁻¹. Moreover, the “krel = kobs,NTP*/kobs,NTP” value in [3] (enhanced incubation conditions) and in [3] (standard incubation conditions) was “(1)” each time. In the data set with 10DM24 variant, the ligation product formed entry is given as “a small amount of the ATP ligation product”.

With `Nc1nc2c(ncn2[C@@H]2O[C@H](COP(=O)(O)OP(=O)(O)OP(=O)(O)O)[C@@H](O)[C@H]2O)c(=O)[nH]1` [GTP, guanosine 5′-triphosphate], the “kobs,enh/kobs,std” value with 10DM24 deoxyribozyme [2] (GTP series) is 8. Moreover, in the data set with 10DM24 deoxyribozyme [2] (setting [8]), the “ligation yield %, 3 h” value came out at 94%. Also, the kobs with 10DM24 deoxyribozyme [2] (enhanced incubation conditions: 10 mM NTP, 150 mM MgCl2, 100 mM CHES pH 9.0, 37° C.) is 0.26 min⁻¹ and 0.262 min⁻¹; in the data set on 10DM24 deoxyribozyme [2] (standard incubation conditions: 1 mM NTP, 40 mM MgCl2, 100 mM CHES pH 9.0, 150 mM NaCl, 2 mM KCl, 37° C., RΔ), 0.034 min⁻¹; in the data set with 10DM24 deoxyribozyme [5] (20 mM GTP + RΔΔ, 150 mM Mg2+), 0.0008 min⁻¹. In addition, the “krel = kobs,NTP*/kobs,NTP” value in the data set with 10DM24 deoxyribozyme [2] (enhanced incubation conditions) and in the data set on 10DM24 deoxyribozyme [2] (standard incubation conditions) was “(1)” each time. For the same molecule, the Kd on 10DM24 deoxyribozyme [2] (from plot of kobs versus [GTP], RΔ, read-out: Kd,app) is above 1000 µM. Moreover, the figures for the “ligation yield %, 5 h” value (with 10DM24 deoxyribozyme [2] (standard incubation conditions); in [3] (standard incubation conditions)) were 94% and below 1%, respectively. Further, in the data set with 10DM24 deoxyribozyme [4] (L:E:RΔ=10:1:3, 1 mM GTP, 40 mM MgCl2, 37° C., 5 hours), the product yield is reported as 50%. Further, in the data set with 10DM24 deoxyribozyme [4] (after 5 hours, L in 10-fold excess over deoxyribozyme), the turnovers was 5. Moreover, the reaction products formed result in the data set on 10DM24 deoxyribozyme [5] (RΔΔ cofactor, 20 mM NTP and 150 mM MgCl2, pH 9.0, 37° C.) is reported as “two reaction products”.

With `N[C@H]1C(O)O[C@H](COP(=O)(O)O)[C@@H](O)[C@@H]1O` (some centres unmarked) [glucosamine 6-phosphate], the Kd at glmS riboswitch is 200 µM.

On to `Nc1nc2c(ncn2[C@@H]2O[C@H](COP(=O)(O)O[C@H]3[C@@H](O)[C@H](n4cnc5c(=O)[nH]c(N)nc54)O[C@@H]3COP(=O)(O)OP(=O)(O)OP(=O)(O)O)[C@@H](O)[C@H]2O)c(=O)[nH]1` [pppGpG], for which, in the data set on 10DM24 deoxyribozyme [5] (1 mM pppGpG + RΔΔ, 40 mM Mg2+), the kobs came out at 0.19 min⁻¹. Also, the product formation entry in the data set on 10DM24 deoxyribozyme [5] (1 mM pppGpG, 40 mM MgCl2, in the absence of RΔΔ) is reported as “no product formation was observed”; in data set [7], “No product formation was observed”. The decrease in kobs in the data set with 10DM24 deoxyribozyme [5] (in the presence of RΔ instead of RΔΔ) was determined as 10 fold; in data set [6], 130 fold. The Kd on 10DM24 deoxyribozyme [5] (with RΔΔ, 40 mM Mg2+, pH 9.0, 37° C., read-out: Kd,app) is above 1000 µM.
